Measured values from paper doi:10.1101/2023.08.03.551817v2 (biorxiv, 2024).

Columns and labels:
Experiment in all cases: two-electrode voltage clamp, Xenopus oocytes
AKDF^19383 [1] = system: T1, AKDF^19383; format: cell-based, Trichoplax adhaerens; conditions: inhibition of constitutive current; pH 7.5; -80 mV
T1 construct: gene TRIADDRAFT_19383; codon-optimized, modified pSP64-poly(A); Xenopus laevis oocytes; homo-tetramer

AKDF^19383 [2] = system: T1, AKDF^19383; format: cell-based, Trichoplax adhaerens; conditions: pH 7.5; -80 mV; agonist
[3] = biological target: T2, GluN1/GluN2A NMDA receptor (channel pore) (Rattus norvegicus, UniProt P35439+Q00959); format: cell-based; conditions: glycine and glutamate present; pH 7.3; -60 mV; open-channel block kinetics
T2 construct: gene Grin1; pcDNA3.1 inserts; mRNA-injected Xenopus laevis oocytes; hetero-tetramer

[4] = biological target: T3, GluN1/GluN2A NMDA receptor (GluN1 ligand-binding site) (Rattus norvegicus, UniProt P35439); format: cell-based
T3 construct: gene Grin1; pcDNA3.1 inserts; mRNA-injected Xenopus laevis oocytes; hetero-tetramer

[5] = biological target: T4, GluN1/GluN2A NMDA receptor (GluN1 ligand-binding site) (Rattus norvegicus, UniProt P35439, D732L); format: cell-based
T4 construct: gene Grin1; pcDNA3.1 inserts; mRNA-injected Xenopus laevis oocytes; hetero-tetramer

C[C@H](N)C(=O)O [alanine]
% inhibition at 10 mM (AKDF^19383 [1]): ~ 50%

N[C@H](CO)C(=O)O [D-serine]
% inhibition at 10 mM (AKDF^19383 [1]): ~ 50%
EC50 (AKDF^19383 [2]): 490 ± 120 µM

C[C@]12N[C@H](Cc3ccccc31)c1ccccc12 [MK-801]
two-electrode voltage clamp, Xenopus oocytes [3]: very similar kinetics of inhibition of WT and mutant receptors (Fig. 3A)

NCC(=O)O [glycine]
% inhibition at 10 mM (AKDF^19383 [1]): ~ 50%

O=C(O)c1cc(O)c2c(Cl)cc(Cl)cc2n1 [5,7-dichlorokynurenic acid]
IC50 [4]: 24.9 ± 5.2 µM
IC50 [5]: 0.44 ± 0.12 µM
